In patent publication US11691974B2, “3,9-diazaspiro[5,5]undecane compound as FLT3 and AXL inhibitors” (MEDSHINE DISCOVERY INC., priority 2018, dated 2023):

Legend:
[1] = In vivo pharmacokinetic study in rats; settings: male, SD, rat, plasma
Method: SD male rats aged 7 to 10 weeks were selected. The doses for intravenous and oral administration were 1 mg/kg and 2.5 mg/kg, respectively. The rats were fasted for at least 12 hours before the administration, and resumed feeding 4 hours after the administration. The rats had free access to water throughout the assay period.
On the day of the assay, the animals in the intravenous group were administrated the corresponding compound through a single injection in the tail vein at an administration volume of 5 mL/kg; the oral group were administrated the corresponding compound through a single intragastric gavage at an administration volume of 10 mL/kg. The animals were weighed before administration, and the administration volume was calculated based on the body weight. The time for collecting samples was: 0.083 (the injection group), 0.25, 0.5, 1, 2, 4, 6, 8, 24 h. About 200 μL of whole blood was collected from the jugular vein at each time point to prepare plasma for concentration determination by high-performance liquid chromatography-tandem mass spectrometry (LC-MS/MS). All animals were euthanized by CO2 anesthesia after collecting the PK samples at the last time point. The plasma concentrations were processed by non-compartmental model of WinNonlin™ Version 6.3 (Pharsight, Mountain View, Calif.) pharmacokinetic software, and the pharmacokinetic parameters were calculated by the linear logarithm trapezoidal method.

FLT3(K663Q) = molecular target: T1, FLT3(K663Q) (Homo sapiens, UniProt P36888, K663Q); test: KINOMEscan Kd determination, FLT3 mutant; type: binding; settings: ratio of Kd versus compound B
T1 sequence (P36888 27-993 K663Q): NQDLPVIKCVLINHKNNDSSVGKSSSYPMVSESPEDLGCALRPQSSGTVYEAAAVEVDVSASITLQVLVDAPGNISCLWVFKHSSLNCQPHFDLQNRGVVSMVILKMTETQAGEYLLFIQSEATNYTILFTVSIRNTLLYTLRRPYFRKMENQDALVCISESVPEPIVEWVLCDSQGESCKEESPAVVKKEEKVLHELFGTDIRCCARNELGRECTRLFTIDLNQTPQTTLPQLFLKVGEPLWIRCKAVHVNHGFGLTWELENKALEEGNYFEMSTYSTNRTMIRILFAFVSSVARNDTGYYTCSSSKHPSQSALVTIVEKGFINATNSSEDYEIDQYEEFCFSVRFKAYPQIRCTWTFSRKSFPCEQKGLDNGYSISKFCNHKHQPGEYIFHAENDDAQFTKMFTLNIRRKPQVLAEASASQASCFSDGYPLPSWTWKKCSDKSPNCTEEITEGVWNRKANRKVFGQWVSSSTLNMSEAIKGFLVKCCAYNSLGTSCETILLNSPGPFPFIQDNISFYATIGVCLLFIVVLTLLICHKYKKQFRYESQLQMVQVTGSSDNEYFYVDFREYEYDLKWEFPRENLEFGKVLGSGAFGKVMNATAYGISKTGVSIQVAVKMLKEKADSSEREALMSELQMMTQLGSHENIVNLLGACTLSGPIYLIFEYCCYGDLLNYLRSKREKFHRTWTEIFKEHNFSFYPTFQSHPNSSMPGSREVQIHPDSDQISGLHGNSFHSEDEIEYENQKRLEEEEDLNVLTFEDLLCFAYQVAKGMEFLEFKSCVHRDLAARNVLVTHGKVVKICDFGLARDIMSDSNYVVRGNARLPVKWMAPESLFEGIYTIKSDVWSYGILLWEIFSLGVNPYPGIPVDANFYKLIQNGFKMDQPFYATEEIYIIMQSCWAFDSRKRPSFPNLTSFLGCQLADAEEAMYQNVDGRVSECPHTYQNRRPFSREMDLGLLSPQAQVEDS
Method: (§1) The assay was carried out using KINOMEscan™ technology. The assay compounds were stored in 100% DMSO. The assay was carried out by means of 3-fold dilution and 11-point fitting. All compounds used for Kd determination were dispersed by ultrasound, then directly diluted and tested. All reactions were carried out in a 384-well polypropylene plate. Each portion has a final volume of 0.02 ml. The plate was incubated with shaking at room temperature for 1 hour, and then processed. The kinase concentration in the eluent was finally determined by qPCR method. Kd was obtained by fitting.

FLT3(ITD, F691L) = molecular target: T2, FLT3(ITD, F691L) (Homo sapiens, UniProt P36888, F691L, form not given); test: KINOMEscan Kd determination, FLT3 mutant; type: binding; settings: ratio of Kd versus compound B
T2 sequence (P36888 1-993 F691L): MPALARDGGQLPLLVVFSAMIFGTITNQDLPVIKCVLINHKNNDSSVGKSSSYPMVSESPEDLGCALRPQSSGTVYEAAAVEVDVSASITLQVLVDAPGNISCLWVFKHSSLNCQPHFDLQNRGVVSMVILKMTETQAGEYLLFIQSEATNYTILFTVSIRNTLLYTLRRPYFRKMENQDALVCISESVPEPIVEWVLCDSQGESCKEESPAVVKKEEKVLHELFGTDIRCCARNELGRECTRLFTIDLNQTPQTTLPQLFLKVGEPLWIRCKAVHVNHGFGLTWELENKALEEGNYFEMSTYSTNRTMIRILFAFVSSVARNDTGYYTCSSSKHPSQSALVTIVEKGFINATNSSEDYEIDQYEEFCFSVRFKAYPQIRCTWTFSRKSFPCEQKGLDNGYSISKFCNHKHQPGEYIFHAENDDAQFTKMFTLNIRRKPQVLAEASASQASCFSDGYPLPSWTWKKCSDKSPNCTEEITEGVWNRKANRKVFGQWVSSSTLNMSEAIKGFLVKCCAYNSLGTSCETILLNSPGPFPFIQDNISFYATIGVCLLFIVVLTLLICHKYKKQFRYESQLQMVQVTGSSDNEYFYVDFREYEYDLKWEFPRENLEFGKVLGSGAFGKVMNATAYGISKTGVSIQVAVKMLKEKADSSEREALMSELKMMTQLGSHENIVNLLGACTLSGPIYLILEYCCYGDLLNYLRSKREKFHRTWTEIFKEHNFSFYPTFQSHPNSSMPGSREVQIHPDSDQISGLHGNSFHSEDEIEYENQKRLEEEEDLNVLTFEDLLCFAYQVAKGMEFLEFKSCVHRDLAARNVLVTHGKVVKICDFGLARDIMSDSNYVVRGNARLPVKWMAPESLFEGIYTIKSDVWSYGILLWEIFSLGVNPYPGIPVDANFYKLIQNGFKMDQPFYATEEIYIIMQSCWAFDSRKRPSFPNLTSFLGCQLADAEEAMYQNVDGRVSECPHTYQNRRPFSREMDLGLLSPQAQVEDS
Method: as §1

AUC(0-t) ([1]; iv, injection 1 mg/kg): 0.457 µM·h
clearance ([1]; iv, injection 1 mg/kg): 61.2 mL/min/kg
half-life ([1]; iv, injection 1 mg/kg): 2.99 h
Vd ([1]; iv, injection 1 mg/kg, read-out: Vdss): 13.3 L/kg
AUC(0-t) ([1]; oral administration 2.5 mg/kg): 0.51 µM·h
bioavailability ([1]; oral administration 2.5 mg/kg): 44.7%
activity for FLT3 (K663Q) higher than that of compound B (FLT3(K663Q)): 5.9 times
activity for FLT3 (ITD, F691L) higher than that of compound B (FLT3(ITD, F691L)): 3.6 times
SMILES: CCc1nc(C(N)=O)c(Nc2ccc(N3CCC4(CCN(C)CC4)CC3)c(C)c2)nc1NC1CCOCC1
